According to ChEMBL document CHEMBL5523756, “Molecular Transformers: Adaptive Multitarget Ligands for Esterase-Induced Transition from Analgesics to Anesthetics” (J Med Chem, 2024):
Activity calls are given as the source filed them. The calls are words filed in the database; no cut-off is given here.

Assays:
[1] = Stability of compound assessed as porcine liver esterase mediated propofol release by measuring half life at 1 mg/ml by HPLC analysis; format: ADME, Sus scrofa; conditions: pig, isolated protein
[2] = target: T1, Sodium channel protein type 10 subunit alpha (Homo sapiens, UniProt Q9Y5Y9); test: Binding affinity to Nav1.8 (unknown origin) expressed in HEK293T cells assessed as retention time of compound at 1 mg/ml by cell membrane chromatography; format: cell membranes
[3] = Toxicity in ICR mouse assessed as survival rate at 1.5 times ED50 administered intravenously; conditions: in vivo, route iv
Rattus norvegicus = test: Analgesic activity in Sprague-Dawley rat model of mechanical nociceptive irritation assessed as response to tail pinch at 19 mg/kg administered as continuous infusion followed by maintenance at 3.25 mg/kg/min for 0 to 20 mins, 2.5 mg/kg/min for 20 to 30 mins and 2 mg/kg/min for 30 to 60 mins; format: functional, organism-based; conditions: route par
[4] = (§1) Toxicity in Sprague-Dawley rat assessed as effect on minute ventilation box at 19 mg/kg administered as continuous infusion followed by maintenance at 3.25 mg/kg/min for 0 to 20 mins, 2.5 mg/kg/min for 20 to 30 mins and 2 mg/kg/min for 30 to 60 mins and measured every 5 mins for 60 mins by whole-body plethysmography; format: organism-based; conditions: in vivo, other, 1 h, route par
[5] = as §1, with “end inspiratory pause” for “minute ventilation box”; format: organism-based; conditions: in vivo, other, 1 h, route par
[6] = Toxicity in Sprague-Dawley rat assessed as reduction in heart rate at 19 mg/kg administered as continuous infusion followed by maintenance at 3.25 mg/kg/min for 0 to 20 mins, 2.5 mg/kg/min for 20 to 30 mins and 2 mg/kg/min for 30 to 60 mins by electrocardiogram recording; format: organism-based; parameters: scale not given: the % may be the effect or the level left; conditions: in vivo, other, 1 h, route par
[7] = Toxicity in Sprague-Dawley rat assessed as alterations in QRS complex duration at 19 mg/kg administered as continuous infusion followed by maintenance at 3.25 mg/kg/min for 0 to 20 mins, 2.5 mg/kg/min for 20 to 30 mins and 2 mg/kg/min for 30 to 60 mins by electrocardiogram recording; format: organism-based; conditions: in vivo, other, 1 h, route par
Mus musculus = test: Antiseizure activity in iv dosed ICR mouse model of PTZ-induced acute seizure assessed as reduction in maximum seizure class preadministered for 1 min followed by PTZ treatment and measured for 15 mins by Racine's scale based analysis; format: functional, organism-based; conditions: time 16.0 min
[8] = Toxicity in Sprague-Dawley rat assessed as effect on LDH level at 19 mg/kg administered as continuous infusion followed by maintenance at 3.25 mg/kg/min for 0 to 20 mins, 2.5 mg/kg/min for 20 to 30 mins and 2 mg/kg/min for 30 to 60 mins; format: organism-based; conditions: in vivo, other, 1 h, route par
[9] = Toxicity in Sprague-Dawley rat assessed as ALT level at 19 mg/kg administered as continuous infusion followed by maintenance at 3.25 mg/kg/min for 0 to 20 mins, 2.5 mg/kg/min for 20 to 30 mins and 2 mg/kg/min for 30 to 60 mins; format: organism-based; conditions: in vivo, other, 1 h, route par
[10] = Toxicity in Sprague-Dawley rat assessed as urea level at 19 mg/kg administered as continuous infusion followed by maintenance at 3.25 mg/kg/min for 0 to 20 mins, 2.5 mg/kg/min for 20 to 30 mins and 2 mg/kg/min for 30 to 60 mins; format: organism-based; conditions: in vivo, other, 1 h, route par
[11] = Toxicity in ICR mouse assessed as histopathological changes in heart at 1.5 times ED50, iv administered as single dose and measured after 14 days by H and E staining based analysis; format: organism-based; conditions: in vivo, 336 h, time 14 day
[12] = Toxicity in ICR mouse assessed as histopathological changes in kidney at 1.5 times ED50, iv administered as single dose and measured after 14 days by H and E staining based analysis; format: organism-based; conditions: in vivo, 336 h, time 14 day
[13] = (§2) Toxicity in Sprague-Dawley rat assessed as histopathological changes in liver at 19 mg/kg administered as continuous infusion followed by maintenance at 3.25 mg/kg/min for 0 to 20 mins, 2.5 mg/kg/min for 20 to 30 mins and 2 mg/kg/min for 30 to 60 mins and measured after 14 days by H and E staining based analysis; format: organism-based; conditions: in vivo, other, 336 h, route par, time 14 day
[14] = as §2, with “kidney” for “liver”; format: organism-based; conditions: in vivo, other, 336 h, route par, time 14 day
Cytochrome P450 2C9 = Cytochrome P450 2C9 (Homo sapiens, UniProt P11712); test: Inhibition of CYP2C9 (unknown origin) using diclofenac as substrate at 10 uM; format: ADME
Cytochrome P450 2C9, sequence (P11712 whole entry): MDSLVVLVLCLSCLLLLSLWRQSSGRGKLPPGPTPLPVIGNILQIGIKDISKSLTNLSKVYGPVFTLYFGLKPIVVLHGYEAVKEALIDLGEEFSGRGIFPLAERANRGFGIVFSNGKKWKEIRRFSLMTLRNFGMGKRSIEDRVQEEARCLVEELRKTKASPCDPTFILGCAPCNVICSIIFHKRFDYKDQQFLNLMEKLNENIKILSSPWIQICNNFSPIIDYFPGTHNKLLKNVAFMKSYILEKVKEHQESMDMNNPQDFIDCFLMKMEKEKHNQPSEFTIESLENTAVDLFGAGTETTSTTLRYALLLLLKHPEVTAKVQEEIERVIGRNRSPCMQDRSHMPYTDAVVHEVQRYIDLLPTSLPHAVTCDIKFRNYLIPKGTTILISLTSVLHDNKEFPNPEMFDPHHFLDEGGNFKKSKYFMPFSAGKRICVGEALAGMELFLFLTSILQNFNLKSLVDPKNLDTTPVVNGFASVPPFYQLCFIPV

Cytochrome P450 2D6 = Cytochrome P450 2D6 (Homo sapiens, UniProt P10635); test: Inhibition of CYP2D6 (unknown origin) using dextromethorphan as substrate at 10 uM; format: ADME
Cytochrome P450 2D6, sequence (P10635 whole entry): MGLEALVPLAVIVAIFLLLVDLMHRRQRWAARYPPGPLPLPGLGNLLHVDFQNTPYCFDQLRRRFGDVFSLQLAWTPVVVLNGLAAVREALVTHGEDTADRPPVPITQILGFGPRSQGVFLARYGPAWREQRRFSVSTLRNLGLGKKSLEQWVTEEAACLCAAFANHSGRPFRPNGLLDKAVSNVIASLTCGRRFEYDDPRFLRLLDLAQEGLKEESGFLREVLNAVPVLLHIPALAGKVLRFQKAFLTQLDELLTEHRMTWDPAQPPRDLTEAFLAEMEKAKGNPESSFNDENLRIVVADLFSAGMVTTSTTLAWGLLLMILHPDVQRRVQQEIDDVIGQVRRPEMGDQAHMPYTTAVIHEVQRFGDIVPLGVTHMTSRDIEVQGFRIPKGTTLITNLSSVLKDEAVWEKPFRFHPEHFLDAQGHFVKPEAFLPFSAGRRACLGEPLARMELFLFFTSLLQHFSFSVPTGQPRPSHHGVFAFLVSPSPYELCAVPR

[15] = Stability in rat plasma assessed as half life at 1 mg/ml measured upto 360 mins by HPLC analysis; format: ADME, cell-free
Cocaine esterase = target: T2, Cocaine esterase (Homo sapiens, UniProt O00748); test: Drug metabolism assessed as human CES2-mediated propofol release at 1 mg/ml measured upto 240 mins by LC-MS analysis; format: ADME; conditions: 4 h
T2 sequence (O00748 whole entry): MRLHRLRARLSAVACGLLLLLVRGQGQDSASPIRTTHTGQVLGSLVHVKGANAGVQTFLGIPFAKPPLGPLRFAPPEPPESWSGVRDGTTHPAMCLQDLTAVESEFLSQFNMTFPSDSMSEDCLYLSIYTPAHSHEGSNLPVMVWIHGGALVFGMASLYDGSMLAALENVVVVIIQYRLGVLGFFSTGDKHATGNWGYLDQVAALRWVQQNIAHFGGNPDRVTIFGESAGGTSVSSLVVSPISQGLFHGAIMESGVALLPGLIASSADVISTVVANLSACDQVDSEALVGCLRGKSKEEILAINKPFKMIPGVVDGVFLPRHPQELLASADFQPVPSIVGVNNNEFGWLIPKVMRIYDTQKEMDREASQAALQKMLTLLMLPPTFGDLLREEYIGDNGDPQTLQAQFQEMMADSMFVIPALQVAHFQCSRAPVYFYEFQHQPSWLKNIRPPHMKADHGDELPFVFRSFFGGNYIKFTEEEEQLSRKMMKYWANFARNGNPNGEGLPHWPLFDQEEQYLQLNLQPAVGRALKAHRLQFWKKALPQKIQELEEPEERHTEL

[16] = target: T1, Sodium channel protein type 10 subunit alpha; test: Inhibition of Nav1.8 channel (unknown origin) at half inactivation state at -120 mV conditioning pulse by voltage clamp electrophysiological recording
[17] = target: Sodium channel protein type 9 subunit alpha (Homo sapiens, UniProt Q15858); test: Inhibition of Nav1.7 channel (unknown origin) at resting state at -120 mV conditioning pulse by voltage clamp electrophysiological recording
Sodium channel protein type 9 subunit alpha, sequence (Q15858 whole entry): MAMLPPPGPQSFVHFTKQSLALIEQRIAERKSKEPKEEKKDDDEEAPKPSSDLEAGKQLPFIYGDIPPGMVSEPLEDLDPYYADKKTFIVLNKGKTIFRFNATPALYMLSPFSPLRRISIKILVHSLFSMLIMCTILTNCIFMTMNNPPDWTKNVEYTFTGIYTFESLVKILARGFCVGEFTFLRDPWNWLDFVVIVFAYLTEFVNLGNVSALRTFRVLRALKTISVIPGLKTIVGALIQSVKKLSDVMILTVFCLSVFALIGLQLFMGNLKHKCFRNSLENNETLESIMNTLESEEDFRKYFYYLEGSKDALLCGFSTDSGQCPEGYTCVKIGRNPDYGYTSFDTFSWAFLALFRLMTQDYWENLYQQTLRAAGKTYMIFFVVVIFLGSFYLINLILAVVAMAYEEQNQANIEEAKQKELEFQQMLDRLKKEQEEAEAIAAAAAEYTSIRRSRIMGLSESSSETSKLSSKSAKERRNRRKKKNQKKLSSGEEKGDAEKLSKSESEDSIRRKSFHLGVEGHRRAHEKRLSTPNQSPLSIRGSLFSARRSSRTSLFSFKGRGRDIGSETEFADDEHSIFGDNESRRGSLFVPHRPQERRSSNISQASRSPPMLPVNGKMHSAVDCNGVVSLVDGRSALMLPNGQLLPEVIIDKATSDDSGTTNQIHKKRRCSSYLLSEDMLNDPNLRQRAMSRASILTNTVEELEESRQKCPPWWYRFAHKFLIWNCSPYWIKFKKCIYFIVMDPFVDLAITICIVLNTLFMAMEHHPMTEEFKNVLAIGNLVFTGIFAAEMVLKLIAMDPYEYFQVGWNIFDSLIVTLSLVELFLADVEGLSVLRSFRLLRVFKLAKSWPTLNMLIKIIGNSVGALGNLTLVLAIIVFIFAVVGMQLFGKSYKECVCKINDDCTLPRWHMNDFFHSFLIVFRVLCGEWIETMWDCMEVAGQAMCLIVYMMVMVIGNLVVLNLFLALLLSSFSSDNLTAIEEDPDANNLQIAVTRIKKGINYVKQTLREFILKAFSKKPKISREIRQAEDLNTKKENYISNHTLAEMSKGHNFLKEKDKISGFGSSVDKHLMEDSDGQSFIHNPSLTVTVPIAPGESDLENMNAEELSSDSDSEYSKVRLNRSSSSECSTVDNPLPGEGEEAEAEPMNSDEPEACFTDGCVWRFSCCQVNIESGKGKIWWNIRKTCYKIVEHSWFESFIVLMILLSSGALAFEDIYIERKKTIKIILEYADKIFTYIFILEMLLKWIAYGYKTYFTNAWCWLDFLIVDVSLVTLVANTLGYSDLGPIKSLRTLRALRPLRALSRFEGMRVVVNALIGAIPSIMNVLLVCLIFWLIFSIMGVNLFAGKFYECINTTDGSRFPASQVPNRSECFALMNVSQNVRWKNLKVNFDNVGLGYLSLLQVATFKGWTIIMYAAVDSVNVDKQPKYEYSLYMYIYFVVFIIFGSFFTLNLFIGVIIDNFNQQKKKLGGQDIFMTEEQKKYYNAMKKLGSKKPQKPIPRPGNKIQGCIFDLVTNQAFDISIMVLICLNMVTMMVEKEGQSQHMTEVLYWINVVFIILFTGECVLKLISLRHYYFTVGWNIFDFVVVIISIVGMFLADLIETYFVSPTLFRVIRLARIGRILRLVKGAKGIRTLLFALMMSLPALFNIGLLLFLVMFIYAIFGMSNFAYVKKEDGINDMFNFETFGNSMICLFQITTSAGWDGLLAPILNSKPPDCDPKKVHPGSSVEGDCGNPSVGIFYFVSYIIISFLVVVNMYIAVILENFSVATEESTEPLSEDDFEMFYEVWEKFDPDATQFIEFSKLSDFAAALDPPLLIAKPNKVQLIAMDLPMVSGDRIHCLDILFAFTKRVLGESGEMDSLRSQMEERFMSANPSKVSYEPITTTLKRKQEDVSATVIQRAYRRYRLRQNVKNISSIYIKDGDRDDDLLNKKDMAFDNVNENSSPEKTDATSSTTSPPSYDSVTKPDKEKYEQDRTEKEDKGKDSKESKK

[18] = target: Sodium channel protein type 5 subunit alpha (Homo sapiens, UniProt Q14524); test: Inhibition of Nav1.5 channel (unknown origin) at resting state at -120 mV conditioning pulse by voltage clamp electrophysiological recording; format: toxicity
Sodium channel protein type 5 subunit alpha, sequence (Q14524 whole entry): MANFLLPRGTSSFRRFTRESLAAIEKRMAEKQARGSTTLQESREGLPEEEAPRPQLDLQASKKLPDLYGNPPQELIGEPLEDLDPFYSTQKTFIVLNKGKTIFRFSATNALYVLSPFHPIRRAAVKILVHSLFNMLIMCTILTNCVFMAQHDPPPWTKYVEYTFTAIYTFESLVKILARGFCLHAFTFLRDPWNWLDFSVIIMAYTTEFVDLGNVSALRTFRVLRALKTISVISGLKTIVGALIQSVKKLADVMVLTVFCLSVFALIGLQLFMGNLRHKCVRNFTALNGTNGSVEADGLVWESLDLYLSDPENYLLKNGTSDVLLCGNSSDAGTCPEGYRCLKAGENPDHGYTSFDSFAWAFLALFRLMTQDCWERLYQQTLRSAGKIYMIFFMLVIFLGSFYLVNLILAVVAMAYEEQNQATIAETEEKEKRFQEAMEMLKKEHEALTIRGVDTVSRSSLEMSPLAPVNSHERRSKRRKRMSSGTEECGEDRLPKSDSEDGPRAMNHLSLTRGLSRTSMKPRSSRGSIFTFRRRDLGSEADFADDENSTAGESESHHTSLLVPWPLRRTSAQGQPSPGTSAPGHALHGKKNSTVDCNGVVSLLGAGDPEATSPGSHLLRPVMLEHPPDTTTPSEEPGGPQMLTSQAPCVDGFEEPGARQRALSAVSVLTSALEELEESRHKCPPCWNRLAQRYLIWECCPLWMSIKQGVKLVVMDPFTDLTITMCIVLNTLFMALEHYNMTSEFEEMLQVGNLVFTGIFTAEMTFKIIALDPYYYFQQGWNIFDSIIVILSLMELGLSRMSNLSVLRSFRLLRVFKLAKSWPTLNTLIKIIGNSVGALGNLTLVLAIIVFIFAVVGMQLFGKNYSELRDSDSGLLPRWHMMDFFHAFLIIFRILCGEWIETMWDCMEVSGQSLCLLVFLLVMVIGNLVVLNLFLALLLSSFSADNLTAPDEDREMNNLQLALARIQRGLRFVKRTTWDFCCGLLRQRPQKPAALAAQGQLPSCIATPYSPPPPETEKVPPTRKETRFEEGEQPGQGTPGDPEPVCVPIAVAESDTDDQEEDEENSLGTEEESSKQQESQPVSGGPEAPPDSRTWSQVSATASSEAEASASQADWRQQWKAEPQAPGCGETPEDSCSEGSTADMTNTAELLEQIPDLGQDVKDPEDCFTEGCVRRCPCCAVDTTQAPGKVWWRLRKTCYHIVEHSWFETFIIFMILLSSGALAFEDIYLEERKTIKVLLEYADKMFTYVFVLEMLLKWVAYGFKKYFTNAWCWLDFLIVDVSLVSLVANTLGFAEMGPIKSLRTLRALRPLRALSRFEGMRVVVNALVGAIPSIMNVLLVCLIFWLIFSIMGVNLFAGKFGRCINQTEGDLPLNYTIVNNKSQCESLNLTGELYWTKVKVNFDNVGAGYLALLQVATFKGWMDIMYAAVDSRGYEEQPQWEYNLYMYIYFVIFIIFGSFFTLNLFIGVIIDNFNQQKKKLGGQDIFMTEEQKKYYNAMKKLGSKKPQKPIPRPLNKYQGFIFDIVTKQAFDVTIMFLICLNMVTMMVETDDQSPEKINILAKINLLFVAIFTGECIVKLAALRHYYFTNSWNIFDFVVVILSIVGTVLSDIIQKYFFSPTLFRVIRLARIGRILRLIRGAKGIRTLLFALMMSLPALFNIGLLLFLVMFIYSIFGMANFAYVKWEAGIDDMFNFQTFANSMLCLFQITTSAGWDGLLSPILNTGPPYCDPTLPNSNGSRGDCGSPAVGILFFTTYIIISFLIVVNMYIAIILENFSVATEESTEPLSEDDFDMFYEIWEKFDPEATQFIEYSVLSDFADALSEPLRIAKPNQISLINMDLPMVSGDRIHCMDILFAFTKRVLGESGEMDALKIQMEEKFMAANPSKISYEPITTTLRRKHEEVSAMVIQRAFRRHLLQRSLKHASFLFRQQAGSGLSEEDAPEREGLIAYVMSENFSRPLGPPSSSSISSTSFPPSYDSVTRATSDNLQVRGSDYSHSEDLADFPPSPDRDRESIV

DRG neuron = test: Modulation of CFA-induced male ICR mouse DRG neuron excitability assessed as reduction in action potential firing frequency at 10 uM by whole cell […] assay; format: functional, cell-based

CCN(CC)CCOC(=O)Oc1c(C(C)C)cccc1C(C)C.Cl
t1/2 [1]: 8.609 min
Retention time [2]: 112 min
survival [3]: 100%
Activity (Rattus norvegicus): Active
Activity [4]: Non-Toxic
Activity [5]: Non-Toxic
Activity [6]: < 20%
Activity [7]: Non-Toxic
Activity (Mus musculus): Active
Activity [8]: Non-Toxic
Activity [9]: 52.47 U/L
Activity [10]: 11.03 mmol/L
Activity [11]: Non-Toxic
Activity [12]: Non-Toxic
Activity [13]: Non-Toxic
Activity [14]: Non-Toxic
inhibition (INH) (Cytochrome P450 2C9): Not Active
inhibition (INH) (Cytochrome P450 2D6): Not Active
half-life at 1 mg/ml [15]: 1.7 min
Drug metabolism (Cocaine esterase): Metabolite_Detected
IC50 [16]: 1.92 µM
IC50 [17]: > 30 µM
IC50 [18]: 23.5 µM
Activity (DRG neuron): Active
